Drawing on PubChem BioAssay AID1053178 (The Scripps Research Institute Molecular Screening Center, 2014), this text covers IC50 for seven molecules.

Molecules are shown by their SMILES. Calls of active or inactive are those of the source.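 How the source made its calls: active means IC50 at or below 10 µM; inactive means IC50 above 10 µM.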

This experiment deals with Trace amine-associated receptor 1 (Homo sapiens) (UniProt Q96RJ0). The experiment is described as follows: TAAR1 antagonists lowering PEA-driven cAMP, late-stage follow-up, cell-based, fluorescence, human, MDRUN002 (AID 1053178). The conditions noted are these: CHO TAAR1 cells, cAMP TR-FRET, PEA-stimulated antagonism. On the technique in general: In TR-FRET formats the signal depends on donor and acceptor labels being close together.
Trace amine-associated receptor 1 (Homo sapiens), sequence (Q96RJ0 whole entry, looked up): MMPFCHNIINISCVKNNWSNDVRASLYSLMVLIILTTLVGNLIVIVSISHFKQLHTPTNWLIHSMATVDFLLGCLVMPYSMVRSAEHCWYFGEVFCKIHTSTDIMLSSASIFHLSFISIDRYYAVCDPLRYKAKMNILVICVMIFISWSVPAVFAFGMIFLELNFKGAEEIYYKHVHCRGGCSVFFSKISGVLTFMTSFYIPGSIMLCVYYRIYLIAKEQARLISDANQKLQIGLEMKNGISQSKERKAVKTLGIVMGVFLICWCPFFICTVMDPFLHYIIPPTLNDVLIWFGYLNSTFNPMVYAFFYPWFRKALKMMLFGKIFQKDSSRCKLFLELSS

Regarding `Cc1ccc(C(=O)CCN2CCC(c3ccccc3)C2)cc1` (configuration not stated), the IC50 – broadly, the concentration that gives 50% inhibition – was > 37.4 µM (inactive).

`N#Cc1c(C(F)(F)F)cc(-c2ccc(Cl)cc2)nc1SCC(=O)N1CCCCCC1`: the IC50 result was “inactive”.

For the molecule `N#Cc1c(C(F)(F)F)cc(-c2ccc(Cl)cc2)nc1SCC(=O)Nc1ncccn1`, the IC50 was 0.00433 µM.

For `O=C(CCN1CCC(c2ccccc2)C1)c1ccccc1` (configuration not stated), the IC50 was > 37.4 µM (inactive).

In the case of `COc1cc(C(=O)CCN2CCC(c3ccccc3)C2)cc(OC)c1OC` (configuration not stated), the IC50 was > 37.4 µM (inactive).

In the case of `CC(CN1CCCC1Cc1ccccc1)C(=O)c1ccc2c(c1)OCCO2` (configuration not stated), the IC50 is > 37.4 µM (inactive).

Consider `N#Cc1c(C(F)(F)F)cc(-c2ccc(Cl)cc2)nc1SCC(=O)N1CCCC1`, for which the IC50 was 0.179 µM.
